One block for each compound: values may come before it.
Key:
[1] = biological target: T1, Serine/threonine-protein kinase TAO3 (Homo sapiens) (UniProt Q9H2K8); assay: Selectivity interaction (Ambit KINOMEscan and KiNATiv profiling in Jurkat cells) EUB0000090b TAOK3; format: cell-based; details: at 1 µM
T1 sequence (whole entry): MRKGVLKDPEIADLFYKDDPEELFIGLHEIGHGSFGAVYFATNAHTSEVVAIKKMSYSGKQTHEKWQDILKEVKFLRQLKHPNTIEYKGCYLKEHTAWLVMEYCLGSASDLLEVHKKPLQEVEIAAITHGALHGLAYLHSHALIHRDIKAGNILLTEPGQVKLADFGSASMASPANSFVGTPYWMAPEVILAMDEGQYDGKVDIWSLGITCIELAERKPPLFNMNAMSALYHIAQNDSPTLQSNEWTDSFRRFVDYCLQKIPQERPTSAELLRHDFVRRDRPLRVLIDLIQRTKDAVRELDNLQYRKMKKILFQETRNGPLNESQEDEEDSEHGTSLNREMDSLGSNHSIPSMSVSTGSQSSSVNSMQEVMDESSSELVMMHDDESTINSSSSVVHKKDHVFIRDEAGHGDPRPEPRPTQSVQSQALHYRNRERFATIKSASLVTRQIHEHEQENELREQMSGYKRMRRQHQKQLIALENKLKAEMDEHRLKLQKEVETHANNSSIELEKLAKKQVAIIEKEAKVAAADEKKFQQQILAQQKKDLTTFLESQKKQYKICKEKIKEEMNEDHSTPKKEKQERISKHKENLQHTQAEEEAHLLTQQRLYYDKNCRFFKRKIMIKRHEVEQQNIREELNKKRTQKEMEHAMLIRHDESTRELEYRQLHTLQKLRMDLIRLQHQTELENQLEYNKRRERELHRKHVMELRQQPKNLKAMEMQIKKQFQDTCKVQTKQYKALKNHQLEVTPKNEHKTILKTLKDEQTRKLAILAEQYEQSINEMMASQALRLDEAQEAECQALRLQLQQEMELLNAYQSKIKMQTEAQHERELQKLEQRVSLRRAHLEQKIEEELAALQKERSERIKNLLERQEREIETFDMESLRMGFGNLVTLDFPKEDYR

[2] = biological target: T2, Histone-lysine N-methyltransferase NSD3 (Homo sapiens) (UniProt Q9BZ95); assay: Selectivity interaction (Transferase panel (protein, RNA, and DNA methyltransferases. and EP300 (acetyltransferase))) EUB0000270b NSD3
T2 sequence (whole entry): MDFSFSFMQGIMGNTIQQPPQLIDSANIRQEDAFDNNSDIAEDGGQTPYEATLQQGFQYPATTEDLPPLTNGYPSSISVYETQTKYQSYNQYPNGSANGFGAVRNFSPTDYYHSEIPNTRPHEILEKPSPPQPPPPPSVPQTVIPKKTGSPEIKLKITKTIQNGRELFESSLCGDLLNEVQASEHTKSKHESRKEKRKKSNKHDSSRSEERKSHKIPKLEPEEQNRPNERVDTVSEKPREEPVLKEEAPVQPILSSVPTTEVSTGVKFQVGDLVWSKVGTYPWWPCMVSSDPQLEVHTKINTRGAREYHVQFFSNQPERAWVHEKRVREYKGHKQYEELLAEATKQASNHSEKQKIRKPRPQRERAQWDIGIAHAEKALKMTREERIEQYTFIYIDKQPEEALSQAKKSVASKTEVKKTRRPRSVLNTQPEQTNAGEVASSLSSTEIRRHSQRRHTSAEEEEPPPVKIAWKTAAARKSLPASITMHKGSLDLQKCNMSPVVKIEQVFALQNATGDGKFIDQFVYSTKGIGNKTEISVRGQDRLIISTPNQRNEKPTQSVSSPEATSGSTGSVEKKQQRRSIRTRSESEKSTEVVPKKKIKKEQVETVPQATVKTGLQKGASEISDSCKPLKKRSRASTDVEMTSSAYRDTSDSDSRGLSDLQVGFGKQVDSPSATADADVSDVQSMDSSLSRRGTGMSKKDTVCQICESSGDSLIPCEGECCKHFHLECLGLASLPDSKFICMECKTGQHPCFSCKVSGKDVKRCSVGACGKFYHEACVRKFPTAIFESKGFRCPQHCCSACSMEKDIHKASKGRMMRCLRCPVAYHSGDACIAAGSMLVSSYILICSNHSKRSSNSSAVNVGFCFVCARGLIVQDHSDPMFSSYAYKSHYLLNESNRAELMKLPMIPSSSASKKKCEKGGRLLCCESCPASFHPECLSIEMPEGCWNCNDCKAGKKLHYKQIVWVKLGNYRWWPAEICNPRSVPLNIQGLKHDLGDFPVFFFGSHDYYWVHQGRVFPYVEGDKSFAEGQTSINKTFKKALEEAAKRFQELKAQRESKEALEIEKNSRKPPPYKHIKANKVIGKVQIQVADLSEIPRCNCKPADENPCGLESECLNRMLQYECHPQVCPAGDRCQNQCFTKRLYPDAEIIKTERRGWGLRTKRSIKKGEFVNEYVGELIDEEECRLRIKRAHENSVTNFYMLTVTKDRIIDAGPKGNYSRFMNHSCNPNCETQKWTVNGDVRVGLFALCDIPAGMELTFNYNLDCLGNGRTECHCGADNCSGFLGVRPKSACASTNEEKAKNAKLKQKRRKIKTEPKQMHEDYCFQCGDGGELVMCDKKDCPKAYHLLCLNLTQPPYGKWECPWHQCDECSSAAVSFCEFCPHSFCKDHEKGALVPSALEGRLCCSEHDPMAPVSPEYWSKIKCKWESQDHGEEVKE

[3] = biological target: SRSF protein kinase 1 (Homo sapiens, UniProt Q96SB4); assay: Selectivity interaction (KinomeScan (DiscoverX)) EUB0000229b SRPK1; details: at 10 µM
[4] = biological target: SWI/SNF-related matrix-associated actin-dependent regulator of chromatin subfamily A member 2 (Homo sapiens, UniProt P51531); assay: Selectivity interaction (Human bromodomain panel (DSF assay)) EUB0000233b SMARCA2
[5] = biological target: Serine/threonine-protein kinase NIM1 (Homo sapiens, UniProt Q8IY84); assay: Selectivity interaction (KinomeScan (DiscoverX)) EUB0000045b NIM1K
Sequence of Serine/threonine-protein kinase NIM1 (Q8IY84 whole entry): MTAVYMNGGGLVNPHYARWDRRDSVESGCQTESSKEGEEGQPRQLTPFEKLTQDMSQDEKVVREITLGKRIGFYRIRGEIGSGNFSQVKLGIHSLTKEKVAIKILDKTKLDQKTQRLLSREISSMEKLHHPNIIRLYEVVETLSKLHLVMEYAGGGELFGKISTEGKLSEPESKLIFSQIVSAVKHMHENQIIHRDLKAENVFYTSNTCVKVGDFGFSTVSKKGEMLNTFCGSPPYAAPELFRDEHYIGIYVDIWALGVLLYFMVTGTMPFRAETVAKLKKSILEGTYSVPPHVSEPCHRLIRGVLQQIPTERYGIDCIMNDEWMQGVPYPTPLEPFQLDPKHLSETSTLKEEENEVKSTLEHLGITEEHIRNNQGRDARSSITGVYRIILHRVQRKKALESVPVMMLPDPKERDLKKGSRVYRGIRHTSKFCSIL

Sequence of SWI/SNF-related matrix-associated actin-dependent regulator of chromatin subfamily A member 2 (P51531 whole entry): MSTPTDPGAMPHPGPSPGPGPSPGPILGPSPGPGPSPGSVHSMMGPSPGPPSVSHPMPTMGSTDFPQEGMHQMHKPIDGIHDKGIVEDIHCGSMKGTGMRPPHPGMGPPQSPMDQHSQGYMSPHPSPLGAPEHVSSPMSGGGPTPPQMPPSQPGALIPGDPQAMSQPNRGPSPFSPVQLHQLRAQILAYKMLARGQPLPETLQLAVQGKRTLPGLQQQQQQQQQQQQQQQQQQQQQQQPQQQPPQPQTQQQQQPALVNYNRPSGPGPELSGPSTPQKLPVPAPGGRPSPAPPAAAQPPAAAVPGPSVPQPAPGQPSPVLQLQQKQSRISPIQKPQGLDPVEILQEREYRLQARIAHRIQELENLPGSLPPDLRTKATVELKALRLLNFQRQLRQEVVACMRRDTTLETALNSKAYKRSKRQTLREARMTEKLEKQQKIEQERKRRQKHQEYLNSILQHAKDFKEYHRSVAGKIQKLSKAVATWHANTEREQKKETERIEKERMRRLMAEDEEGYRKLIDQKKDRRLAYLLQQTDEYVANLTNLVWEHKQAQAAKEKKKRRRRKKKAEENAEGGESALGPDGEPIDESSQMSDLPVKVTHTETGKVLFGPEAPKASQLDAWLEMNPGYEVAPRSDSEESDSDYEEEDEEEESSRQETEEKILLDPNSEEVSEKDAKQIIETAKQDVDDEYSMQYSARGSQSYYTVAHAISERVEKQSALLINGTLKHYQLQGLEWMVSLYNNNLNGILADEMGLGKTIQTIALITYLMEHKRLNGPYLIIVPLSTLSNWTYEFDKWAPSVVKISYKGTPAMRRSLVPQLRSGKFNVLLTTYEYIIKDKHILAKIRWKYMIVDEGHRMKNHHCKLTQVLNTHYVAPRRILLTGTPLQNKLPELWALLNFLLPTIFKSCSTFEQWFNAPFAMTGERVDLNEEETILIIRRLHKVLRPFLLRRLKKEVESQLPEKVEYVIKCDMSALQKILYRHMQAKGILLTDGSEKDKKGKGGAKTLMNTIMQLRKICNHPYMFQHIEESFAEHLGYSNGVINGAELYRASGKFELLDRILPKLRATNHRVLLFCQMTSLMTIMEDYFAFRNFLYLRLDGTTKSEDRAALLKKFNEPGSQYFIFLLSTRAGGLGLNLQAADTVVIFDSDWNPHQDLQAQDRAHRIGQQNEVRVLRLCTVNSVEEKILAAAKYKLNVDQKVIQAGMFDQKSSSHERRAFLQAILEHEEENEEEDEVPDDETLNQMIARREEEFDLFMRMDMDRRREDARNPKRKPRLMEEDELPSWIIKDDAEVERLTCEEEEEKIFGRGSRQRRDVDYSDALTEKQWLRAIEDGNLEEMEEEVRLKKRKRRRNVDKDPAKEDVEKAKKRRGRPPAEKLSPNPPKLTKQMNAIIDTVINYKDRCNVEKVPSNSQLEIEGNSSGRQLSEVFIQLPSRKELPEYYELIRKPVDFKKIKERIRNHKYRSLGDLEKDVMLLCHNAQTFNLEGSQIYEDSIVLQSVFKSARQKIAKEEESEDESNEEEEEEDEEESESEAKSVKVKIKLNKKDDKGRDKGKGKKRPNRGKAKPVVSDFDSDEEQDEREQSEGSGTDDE
Sequence of SRSF protein kinase 1 (Q96SB4 whole entry): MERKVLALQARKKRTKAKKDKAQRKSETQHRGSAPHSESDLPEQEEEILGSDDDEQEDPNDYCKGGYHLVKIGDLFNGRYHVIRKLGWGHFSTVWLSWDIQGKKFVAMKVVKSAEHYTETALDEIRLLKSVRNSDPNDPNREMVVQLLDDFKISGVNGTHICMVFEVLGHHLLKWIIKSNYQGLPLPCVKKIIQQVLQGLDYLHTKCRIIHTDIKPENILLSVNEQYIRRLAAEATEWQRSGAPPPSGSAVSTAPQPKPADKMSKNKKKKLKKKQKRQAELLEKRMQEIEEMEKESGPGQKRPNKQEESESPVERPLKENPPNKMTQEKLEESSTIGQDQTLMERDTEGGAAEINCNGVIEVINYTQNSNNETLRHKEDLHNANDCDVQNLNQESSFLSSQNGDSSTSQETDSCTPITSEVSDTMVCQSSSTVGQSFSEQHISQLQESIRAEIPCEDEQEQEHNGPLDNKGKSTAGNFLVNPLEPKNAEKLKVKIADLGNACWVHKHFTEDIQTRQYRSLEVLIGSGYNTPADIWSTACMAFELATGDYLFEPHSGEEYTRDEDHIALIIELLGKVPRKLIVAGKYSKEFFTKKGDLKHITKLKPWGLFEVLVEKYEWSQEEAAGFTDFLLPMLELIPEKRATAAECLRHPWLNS

SMILES: CN(C)C/C=C/C(=O)Nc1ccc(C(=O)N2CCCC(Nc3ncc(Cl)c(-c4c[nH]c5ccccc45)n3)C2)cc1 (configuration not stated)
% of control [1]: 97%

% activity ([2]; at 1 µM): > 90%
% activity ([2]; at 10 µM): > 80%
SMILES: Cc1cc(CN)cc(C)c1-c1ncn(C)c1-c1cncn1C

SMILES: COc1cc(N(C)c2ccnc3ccc(C(F)(F)F)cc23)cc(OC)c1OC
% binding [3]: 92%

dTM [4]: < 2 K
SMILES: CN(C)CCCOc1ccc(-c2cc(NCCCn3cccn3)nc(S(C)(=O)=O)n2)cc1

SMILES: C=CC(=O)Nc1cc(-n2c(=O)ccc3cnc4ccc(-c5ccc(NS(C)(=O)=O)cc5)cc4c32)ccc1C
% of control ([5]; at 1 µM): 100%
% of control ([5]; at 10 µM): 100%
